In the Bradley open melting point set (2014):
Where “and” joins values, the source holds several entries; their conditions need not be identical. Equal values may be shown once. Where a name gives a salt, the structure may show the parent alone.

Structure (SMILES) | melting point
O=C(CCBr)N1CCN(C(=O)CCBr)CC1 [pipobroman] | 106 °C
O=C(C1CCCCC1)N1CC(=O)N2CCc3ccccc3C2C1 (stereo unspecified) [praziquantel] | 136 °C
CC=C1CCC2C3CCC4CC(OC(C)=O)CCC4(C)C3CCC12C (stereo unspecified) [pregn-17-en-3-yl acetate] | 119 °C
CCCN(CCC)S(=O)(=O)c1ccc(C(=O)O)cc1 [probenecid] | 198 °C
CN1CCN(CCCN2c3ccccc3Sc3ccc(Cl)cc32)CC1 [prochlorperazine] | 228 °C
CC(CN1c2ccccc2Sc2ccccc21)N(C)C (stereo unspecified) [promethazine] | 60 °C
CCC(=O)O [propanoic acid] | -20.7 °C
CCC(=O)O [propanoic_acid] | -21 °C
CCC(=O)O [propionic acid] | -21 °C
CCC(=O)c1ccccc1 [propiophenone] | 19 °C
CNC(=O)Oc1ccccc1OC(C)C [propoxur] | 91.5 °C
CCC(=O)O[C@](Cc1ccccc1)(c1ccccc1)[C@H](C)CN(C)C [propoxyphene] | 75.5 °C
CCCOC(=O)c1ccc(O)cc1 [propyl 4-hydroxybenzoate] | 96 °C
CCCOC(=O)c1ccc(O)cc1 [propyl p-hydroxybenzoate] | 96 °C
CCCOC(=O)c1ccc(O)cc1 [propyl paraben] | 97 °C and 96.5 °C (2×) and 96 °C
CCCOC(C)=O [propyl_acetate] | -95 °C
CC1CO1 (stereo unspecified) [propylene oxide] | -112 °C
CCCOC(=O)c1ccc(O)cc1 [propylparaben] [listing 1 of 2 here] | 97 °C
CCCOC(=O)c1ccc(O)cc1 [propylparaben] [listing 2 of 2 here] | 96.5 °C
NC(=O)c1cnccn1 [pyrazinamide] | 190 °C and 189 °C
c1cc2ccc3cccc4ccc(c1)c2c34 [pyrene] | 156 °C
[O-][n+]1ccccc1 [pyridine n-oxide] | 64 °C

Structure (SMILES) | melting point
O=Cc1cccnc1 [pyridine-3-carboxaldehyde] | 8 °C
c1ccncc1 [pyridine] | -42 °C
O=C(O)c1cc(C(=O)O)c(C(=O)O)cc1C(=O)O [pyromellitic acid] | 283 °C
C1CCNC1 [pyrrolidine] | -63 °C
O=C(O)c1ccc2ccccc2n1 [quinaldic acid] | 158 °C
O=Cc1cnc2ccccc2c1 [quinoline-3-carboxaldehyde] | 70 °C
Oc1ccc(/C=C/c2cc(O)cc(O)c2)cc1 [resveratrol] | 254 °C
CC1=C(/C=C/C(C)=C/C=C/C(C)=C/C(=O)O)C(C)(C)CCC1 [retinoic acid] | 181 °C
N/N=C/c1ccccc1O [salicylaldehyde hydrazone] | 97 °C
O=C(O)c1ccccc1O [salicylic acid] | 158 °C and 157 °C
O=C(O)c1ccccc1O [salicylic_acid] | 160 °C
Oc1ccccc1C=Nc1ccccc1 [salicylideneaniline] | 51 °C
O=C(O)CCCCCCCCC(=O)O [sebacic acid] | 133 °C
CC1=C(C)C(=O)C(C(CCCCCC(=O)O)c2ccccc2)=C(C)C1=O (stereo unspecified) [seratrodast] | 128 °C
CCC(C)(C)C(=O)O[C@H]1C[C@@H](C)C=C2C=C[C@H](C)[C@H](CC[C@@H]3C[C@@H](O)CC(=O)O3)[C@H]21 [simvastatin] | 136 °C
CC(=O)S[C@@H]1CC2=CC(=O)CC[C@]2(C)[C@H]2CC[C@@]3(C)[C@@H](CC[C@@]34CCC(=O)O4)[C@H]12 [spironolactone] | 134 °C
CCCCCCCCCCCCCCCCCC(=O)O [stearic acid] | 71 °C
C(=Cc1ccccc1)c1ccccc1 [stilbene] | 126 °C
O=C(O)CCCCCCC(=O)O [suberic acid] | 143 °C
O=C(O)CCC(=O)O [succinic acid] | 188 °C and 187 °C
O=C(O)CCC(=O)O [succinic_acid] | 188 °C
N#CCCC#N [succinonitrile] | 56 °C

Structure (SMILES) | melting point
CC(=O)NS(=O)(=O)c1ccc(N)cc1 [sulfacetamide] [listing 1 of 2 here] | 183 °C
CC(=O)NS(=O)(=O)c1ccc(N)cc1 [sulfacetamide] [listing 2 of 2 here] | 182 °C
Nc1ccc(S(=O)(=O)Nc2ncccn2)cc1 [sulfadiazine] | 255 °C
Cc1ccnc(NS(=O)(=O)c2ccc(N)cc2)n1 [sulfamerazine] [listing 1 of 2 here] | 236 °C
Cc1ccnc(NS(=O)(=O)c2ccc(N)cc2)n1 [sulfamerazine] [listing 2 of 2 here] | 234 °C
NS(N)(=O)=O [sulfamide] | 92 °C
Nc1ccc(S(=O)(=O)Nc2ccccn2)cc1 [sulfapyridine] | 192 °C
N#Cc1ccc(C#N)cc1 [terephthalonitrile] | 226 °C
CC(C)(C)OO [tert-Butyl hydroperoxide] | -3 °C
CC(C)(C)O [tert-butyl alcohol, anhydrous] | 25 °C
CC(C)(C)N [tert-butylamine] | -67 °C
O=C5\C=C4/C(C3CCC2(C(CCC2OC(=O)c1ccccc1)C3CC4)C)(C)CC5 (stereo unspecified) [testosterone benzoate] | 195 °C
O=C4\C=C2/[C@]([C@H]1CC[C@@]3([C@@H](O)CC[C@H]3[C@@H]1CC2)C)(C)CC4 [testosterone] | 155 °C and 154 °C
Oc1c(Br)c(Br)c(O)c(Br)c1Br [tetrabromohydroquinone] | 244 °C
C1CCOC1 [tetrahydrofuran] | -108 °C
C[SiH](C)O[Si](O[SiH](C)C)(O[SiH](C)C)O[SiH](C)C [tetrakis(dimethylsiloxy)silane] | -60 °C
CO[Si](OC)(OC)OC [tetramethoxysilane] | 5 °C
O=C1C(c2ccccc2)=C(c2ccccc2)C(c2ccccc2)=C1c1ccccc1 [tetraphenylcyclopentadienone] | 218 °C
O=C1CCC(N2C(=O)c3ccccc3C2=O)C(=O)N1 (stereo unspecified) [thalidomide] [listing 1 of 2 here] | 270 °C
O=C1CCC(N2C(=O)c3ccccc3C2=O)C(=O)N1 (stereo unspecified) [thalidomide] [listing 2 of 2 here] | 270 °C and 275 °C
Cn1cnc2c1c(=O)[nH]c(=O)n2C [theobromine] | 357 °C
Cn1c(=O)c2[nH]cnc2n(C)c1=O [theophylline] | 272 °C and 274 °C

Structure (SMILES) | melting point
c1cscn1 [thiazole] | -33 °C
NC(=S)c1ccccc1 [thiobenzamide] | 116 °C
O=S(Br)Br [thionyl bromide] | -52 °C
OB(O)c1ccsc1 [thiophene-3-boronic acid] | 167 °C
CN(C)C1=NC(=O)C(c2ccccc2)O1 (stereo unspecified) [thozalinone] | 133 °C
Cc1c[nH]c(=O)[nH]c1=O [thymine] | 317 °C
CCCCNC(=O)NS(=O)(=O)c1ccc(C)cc1 [tolbutamide] | 129 °C
O=C(O)/C=C/c1ccccc1Br [trans-2-bromocinnamic acid] | 218 °C
C/C=C/CCC [trans-2-hexene] | -133 °C
O=C(O)/C=C/c1ccccc1[N+](=O)[O-] [trans-2-nitrocinnamic acid] | 247 °C
C/C=C/CC [trans-2-pentene] | -140 °C
COc1ccc(/C=C/C=O)cc1 [trans-4-methoxycinnamaldehyde] | 58 °C
CC(=O)/C=C/c1ccccc1 [trans-4-phenyl-3-buten-2-one] | 41 °C
ClC1=C(Cl)C2(Cl)C3C(Cl)C(Cl)CC3C1(Cl)C2(Cl)Cl (stereo not drawn) [trans-Chlordane] | 106 °C
C(=C\c1ccccc1)/c1ccccc1 [trans-Stilbene] | 125 °C
ClC1=C(Cl)C2(Cl)C3C(Cl)C(Cl)CC3C1(Cl)C2(Cl)Cl (stereo not drawn) [trans-gamma-chlordane] | 106 °C
C(=C\c1ccccc1)/c1ccccc1 [trans-stilbene] | 125 °C and 124 °C
CCCCP(CCCC)CCCC [tri-n-butylphosphine] | -65 °C
CCCCCCCCN(CCCCCCCC)CCCCCCCC [tri-n-octylamine] | -39 °C
CC(=O)O[Si](C)(OC(C)=O)OC(C)=O [triacetoxy(methyl)silane] | 43 °C
OCCN(CCO)CCO [triethanolamine] | 20 °C
CCOC(=O)CC(O)(CC(=O)OCC)C(=O)OCC [triethyl citrate] | -55 °C

Structure (SMILES) | melting point
CC[SiH](CC)CC [triethylsilane] | -157 °C
O=C(O)C(F)(F)F [trifluoroacetic acid] | -15 °C
O=S(=O)(O)C(F)(F)F [trifluoromethanesulfonic acid] | -40 °C
COc1cc(Cc2cnc(N)nc2N)cc(OC)c1OC [trimethoprim] | 201 °C
COB(OC)OC [trimethyl borate] | -34 °C
CC(C)(C)C=O [trimethylacetaldehyde] | 6 °C
CC(C)(C)C(=O)Cl [trimethylacetyl chloride] | -57 °C
C[Si](C)(C)N=C=S [trimethylsilyl isothiocyanate] | -33 °C
SC(c1ccccc1)(c1ccccc1)c1ccccc1 [triphenylmethyl mercaptan] | 106 °C
COc1cccc(OC)c1P(c1c(OC)cccc1OC)c1c(OC)cccc1OC [tris(2,6-dimethoxyphenyl)phosphine] | 146 °C
COc1ccccc1P(c1ccccc1OC)c1ccccc1OC [tris(2-methoxyphenyl)phosphine] | 200 °C
COc1cccc(P(c2cccc(OC)c2)c2cccc(OC)c2)c1 [tris(3-methoxyphenyl)phosphine] | 114 °C
FC(F)(F)c1ccc(P(c2ccc(C(F)(F)F)cc2)c2ccc(C(F)(F)F)cc2)cc1 [tris[4-(trifluoromethyl)phenyl]phosphine] | 74 °C
NC(c1ccccc1)(c1ccccc1)c1ccccc1 [tritylamine] | 102 °C
CCCCCCCCCCC(=O)O [undecanoic acid] | 28.6 °C
C[C@H](CCC(=O)O)[C@H]1CC[C@H]2[C@@H]3[C@@H](O)C[C@@H]4C[C@H](O)CC[C@]4(C)[C@H]3CC[C@]12C [ursodeoxycholic acid] | 203 °C
CC(CCC(=O)O)C1CCC2C3C(O)CC4CC(O)CCC4(C)C3CCC12C (stereo unspecified) [ursodiol] | 203 °C
CCCCC#N [valeronitrile] | -96 °C
